Laboratory results reported in patent US11254668B2, “Pyrazolo[1,5-A]pyrazin-4-yl and related derivatives” (Pfizer Inc., priority 2017, dated 2022).

Columns and labels:
Assay type in all cases: biochemical
TYK2 = TYK2 (Homo sapiens (Human), UniProt P29597); experiment: JAK Caliper Enzyme Assay at 1 mM ATP, TYK2
Procedure, shortened: (§1)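 Recombinant human kinase domains phosphorylate a fluorescent synthetic peptide at 1 mM ATP and room temperature, with enzyme level and time tuned to 20–30% conversion before an EDTA stop. Microfluidic mobility-shift separation gives percent product from peak heights. Percent effect against plate controls (DMSO baseline) is plotted versus compound concentration.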

JAK1 = JAK1 (Homo sapiens (Human), UniProt P23458); experiment: JAK Caliper Enzyme Assay at 1 mM ATP, JAK1
JAK1, sequence (P23458 875-1153): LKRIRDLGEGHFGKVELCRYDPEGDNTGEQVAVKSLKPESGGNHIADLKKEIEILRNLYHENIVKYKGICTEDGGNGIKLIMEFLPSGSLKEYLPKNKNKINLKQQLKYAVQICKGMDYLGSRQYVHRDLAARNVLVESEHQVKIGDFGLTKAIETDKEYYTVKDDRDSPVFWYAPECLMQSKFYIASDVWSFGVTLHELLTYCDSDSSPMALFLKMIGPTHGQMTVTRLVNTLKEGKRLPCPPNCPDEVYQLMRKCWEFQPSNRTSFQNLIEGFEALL
Procedure, shortened: (§2)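 Recombinant human kinase domains phosphorylated a fluorescent synthetic peptide at room temperature, with enzyme level and time tuned to 20% to 30% conversion; EDTA stop buffer ended reactions. Mobility-shift separation gave percent product from peak heights, normalised to DMSO and positive controls, and IC50s came from concentration–effect curves.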

JAK2 = JAK2 (Homo sapiens (Human), UniProt O60674); experiment: JAK Caliper Enzyme Assay at 1 mM ATP, JAK2
JAK2, sequence (O60674 849-1124): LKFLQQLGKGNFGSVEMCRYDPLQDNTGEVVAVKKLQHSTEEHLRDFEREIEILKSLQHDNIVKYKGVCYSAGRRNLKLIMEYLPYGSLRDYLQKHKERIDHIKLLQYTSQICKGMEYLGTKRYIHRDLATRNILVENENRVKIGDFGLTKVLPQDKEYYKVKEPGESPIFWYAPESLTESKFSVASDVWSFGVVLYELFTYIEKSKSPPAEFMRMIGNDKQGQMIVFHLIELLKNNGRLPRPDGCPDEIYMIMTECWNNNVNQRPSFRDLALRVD
Procedure, shortened: as §1

JAK3 = JAK3 (Homo sapiens (Human), UniProt P52333); experiment: JAK Caliper Enzyme Assay at 1 mM ATP, JAK3
JAK3, sequence (P52333 822-1111): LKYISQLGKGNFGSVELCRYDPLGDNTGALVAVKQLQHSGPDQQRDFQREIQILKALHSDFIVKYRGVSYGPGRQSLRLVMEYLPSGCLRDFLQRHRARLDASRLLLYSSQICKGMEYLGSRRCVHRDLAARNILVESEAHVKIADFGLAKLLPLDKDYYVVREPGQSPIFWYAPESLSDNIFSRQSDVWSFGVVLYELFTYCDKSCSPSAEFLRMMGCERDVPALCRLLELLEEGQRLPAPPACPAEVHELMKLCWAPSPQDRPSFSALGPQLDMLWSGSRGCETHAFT
Procedure, shortened: as §2

TYK2, sequence (P29597 897-1176): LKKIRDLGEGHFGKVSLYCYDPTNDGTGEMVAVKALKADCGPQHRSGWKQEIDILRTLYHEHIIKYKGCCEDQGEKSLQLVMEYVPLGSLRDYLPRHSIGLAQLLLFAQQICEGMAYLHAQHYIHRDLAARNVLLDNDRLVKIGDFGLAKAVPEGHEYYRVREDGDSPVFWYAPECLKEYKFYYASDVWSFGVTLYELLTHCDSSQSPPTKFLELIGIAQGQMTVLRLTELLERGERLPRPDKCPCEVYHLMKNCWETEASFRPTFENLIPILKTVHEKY

Row | Structure (SMILES) | IC50 (TYK2) | IC50 (JAK1) | IC50 (JAK2) | IC50 (JAK3)
1 | Cc1cc(-c2cc(-c3cc[nH]n3)cc3ncccc23)nn1C1(CC#N)CN(S(C)(=O)=O)C1 [Example 293, [3-{5-methyl-3-[7-(1H-pyrazol-3-yl)quinolin-5-yl]-1H-pyrazol-1-yl}-1-(methylsulfonyl)azetidin-3-yl]acetonitrile] | 81 nM | 8190 nM | 2980 nM | > 10000 nM
2 | Cn1cc(-c2cc(-c3cn(C4(CC#N)CN(S(C)(=O)=O)C4)nn3)c3cccnc3c2)cn1 [Example 294, [3-{4-[7-(1-methyl-1H-pyrazol-4-yl)quinolin-5-yl]-1H-1,2,3-triazol-1-yl}-1-(methylsulfonyl)azetidin-3-yl]acetonitrile] | 267 nM | 1340 nM | 151 nM | > 10000 nM
3 | CS(=O)(=O)N1CC(CC#N)(n2cc(-c3cc(-c4ccc(=O)[nH]c4)cc4ncccc34)nn2)C1 [Example 295, [1-(methylsulfonyl)-3-{4-[7-(6-oxo-1,6-dihydropyridin-3-yl)quinolin-5-yl]-1H-1,2,3-triazol-1-yl}azetidin-3-yl]acetonitrile] | 155 nM | 7720 nM | 2580 nM | > 10000 nM
4 | N#CCC1(n2ncc(-c3cc(-c4cc[nH]n4)cc4ncccc34)n2)CN(CC(F)(F)F)C1 [Example 296, [3-{4-[7-(1H-pyrazol-3-yl)quinolin-5-yl]-2H-1,2,3-triazol-2-yl}-1-(2,2,2-trifluoroethyl)azetidin-3-yl]acetonitrile] | 41 nM | 534 nM | 598 nM | > 10000 nM
5 | N#CCC1(n2ncc(-c3cc(-c4cc[nH]n4)cc4ncccc34)n2)CN(CC2(F)CC2)C1 [Example 297] | 315 nM | 4590 nM | 2470 nM | > 10000 nM
6 | N#CCC1(n2ncc(-c3cc(-c4cc[nH]n4)cc4ncccc34)n2)CN(S(=O)(=O)C2CC2)C1 [Example 299, [1-(cyclopropylsulfonyl)-3-{4-[7-(1H-pyrazol-3-yl)quinolin-5-yl]-2H-1,2,3-triazol-2-yl}azetidin-3-yl]acetonitrile] | 10 nM | 280 nM | 252 nM | > 10000 nM
7 | N#CCC1(n2ncc(-c3cc(-c4ccn[nH]4)cc4ncccc34)n2)CN(S(=O)(=O)C2COC2)C1 [Example 301, [1-(oxetan-3-ylsulfonyl)-3-{4-[7-(1H-pyrazol-5-yl)quinolin-5-yl]-2H-1,2,3-triazol-2-yl}azetidin-3-yl]acetonitrile] | 17 nM | 338 nM | 195 nM | > 10000 nM
8 | Cn1nccc1-c1cc(-c2cnn(C3(CC#N)CN(S(C)(=O)=O)C3)n2)c2cccnc2c1 [Example 310, [3-{4-[7-(1-methyl-1H-pyrazol-5-yl)quinolin-5-yl]-2H-1,2,3-triazol-2-yl}-1-(methylsulfonyl)azetidin-3-yl]acetonitrile] | 725 nM | > 10000 nM | > 10000 nM | > 10000 nM

Other lines, results leading:

Row | IC50 (TYK2) | IC50 (JAK1) | IC50 (JAK2) | IC50 (JAK3) | Structure (SMILES)
9 | 236 nM | 2960 nM | 1750 nM | > 10000 nM | N#CC[C@]1(n2cc(-c3cc(-c4cn[nH]c4N)cc4ncccc34)cn2)C[C@H](C#N)C1 [Example 290, trans-3-{4-[7-(5-amino-1H-pyrazol-4-yl)quinolin-5-yl]-1H-pyrazol-1-yl}-3-(cyanomethyl)cyclobutanecarbonitrile]
10 | 343 nM | 8820 nM | 3740 nM | > 10000 nM | CO[C@H]1C[C@](CC#N)(n2cc(-c3cc(-c4c[nH]nc4N)cc4ncccc34)cn2)C1 [Example 291, (trans-1-{4-[7-(3-amino-1H-pyrazol-4-yl)quinolin-5-yl]-1H-pyrazol-1-yl}-3-methoxycyclobutyl)acetonitrile]
11 | 36 nM | 653 nM | 71 nM | > 10000 nM | Cn1cc(-c2cc(-c3cnn(C4(CC#N)CN(CC#N)C4)c3)c3cccnc3c2)cn1 [Example 292, 2,2′-(3-{4-[7-(1-methyl-1H-pyrazol-4-yl)quinolin-5-yl]-1H-pyrazol-1-yl}azetidine-1,3-diyl)diacetonitrile]
12 | 20 nM | 436 nM | 173 nM | > 10000 nM | N#CC[C@]1(n2ncc(-c3cc(-c4cc[nH]n4)cc4ncccc34)n2)C[C@H](C#N)C1 [Example 302, trans-3-(cyanomethyl)-3-{4-[7-(1H-pyrazol-3-yl)quinolin-5-yl]-2H-1,2,3-triazol-2-yl}cyclobutanecarbonitrile]
13 | 5 nM | 81 nM | 29 nM | 3100 nM | N#CC[C@]1(n2ncc(-c3cc(-c4cc[nH]n4)cc4ncccc34)n2)C[C@@H](C#N)C1 [Example 303, cis-3-(cyanomethyl)-3-{4-[7-(1H-pyrazol-3-yl)quinolin-5-yl]-2H-1,2,3-triazol-2-yl}cyclobutanecarbonitrile]
14 | 36 nM | 2300 nM | 788 nM | > 10000 nM | CO[C@H]1C[C@@](CC#N)(n2ncc(-c3cc(-c4cc[nH]n4)cc4ncccc34)n2)C1 [Example 304, (cis-3-methoxy-1-{4-[7-(1H-pyrazol-3-yl)quinolin-5-yl]-2H-1,2,3-triazol-2-yl}cyclobutyl)acetonitrile]
15 | 35 nM | 2560 nM | 1050 nM | > 10000 nM | CO[C@H]1C[C@](CC#N)(n2ncc(-c3cc(-c4cc[nH]n4)cc4ncccc34)n2)C1 [Example 305, (trans-3-methoxy-1-{4-[7-(1H-pyrazol-3-yl)quinolin-5-yl]-2H-1,2,3-triazol-2-yl}cyclobutyl)acetonitrile]
16 | 14 nM | 255 nM | 174 nM | 9160 nM | N#CCC1(n2ncc(-c3cc(-c4cc(N)[nH]n4)cc4ncccc34)n2)CC(C#N)C1 (stereo not drawn) [Example 306, trans-3-{4-[7-(5-amino-1H-pyrazol-3-yl)quinolin-5-yl]-2H-1,2,3-triazol-2-yl}-3-(cyanomethyl)cyclobutanecarbonitrile]
17 | 7 nM | 49 nM | 30 nM | 1930 nM | N#CC[C@]1(n2ncc(-c3cc(-c4cc(N)[nH]n4)cc4ncccc34)n2)C[C@@H](C#N)C1 [Example 307, cis-3-{4-[7-(5-amino-1H-pyrazol-3-yl)quinolin-5-yl]-2H-1,2,3-triazol-2-yl}-3-(cyanomethyl)cyclobutanecarbonitrile]
18 | 18 nM | 719 nM | 131 nM | > 10000 nM | N#CC[C@]1(n2ncc(-c3cc(-c4cc(CO)[nH]n4)cc4ncccc34)n2)C[C@H](C#N)C1 [Example 308, trans-3-(cyanomethyl)-3-(4-{7-[5-(hydroxymethyl)-1H-pyrazol-3-yl]quinolin-5-yl}-2H-1,2,3-triazol-2-yl)cyclobutanecarbonitrile]
19 | 29 nM | 1880 nM | 163 nM | > 10000 nM | Cn1nc(-c2cc(-c3cnn([C@]4(CC#N)C[C@@H](C#N)C4)n3)c3cccnc3c2)cc1CO [Example 309, trans-3-(cyanomethyl)-3-(4-{7-[5-(hydroxymethyl)-1-methyl-1H-pyrazol-3-yl]quinolin-5-yl}-2H-1,2,3-triazol-2-yl)cyclobutanecarbonitrile]
